Reference: ChEMBL document CHEMBL1157949, “Kalanchosine dimalate, an anti-inflammatory salt from Kalanchoe brasiliensis” (J Nat Prod, 2006)
The source made the active and inactive calls. No cut-off for these calls is given here.

System: Mus musculus
Assay: Antiinflammatory activity against zymosan-induced inflammation in mouse assessed as impairment of increase in popliteal lymph node weight at 240 mg/kg, ip administered daily 2 days before zymosan challenge measured after 5 days
Format: functional, organism-based
Set-up: dose 240 mg/kg

Q: For `NC(CC(=O)O)C(O)C(O)C(N)CC(=O)O` (stereo unspecified), which Activity is on record?
A: Active
